Test results: patent US4261978A, “Treatment and prophylaxis of swine dysentery” (Takeda Chemical Industries, Ltd., priority 1978, dated 1981)
In brackets after ≈: the same amount, converted by molar mass. Like-named read-outs stand apart in the source and are kept apart here.

What was measured:
[1] = tested on: Treponema hyodysenteriae; experiment: Minimum inhibitory concentration against Treponema hyodysenteriae (agar dilution); format: cell-based; conditions: 10^6 CFU/ml. loopful, 37° C., 2 days; for MIC: Brachyspira hyodysenteriae, 48 h
Procedure: (1)Strains: These strains belong to Treponema hyodysenteriae isolated fro
the bloody mucous faeces of dysenteric pigs; MK 1, MK 2 and MK 4 were
obtained in Kyushu District of Japan while OX 1 was obtained in Okinawa,
(2)Antimicrobial potency assay: Agar Dilution Method
(3) Inoculum size: a loopful of 10^6 CFU/ml.
(4)Cultural conditions: Gas Pak (BBL) method, 37° C., 2 days

[2] = Acute oral toxicity (LD50); format: in vivo, mouse; conditions: for LD50: mouse, oral
From the text: (C) Carriomycin is extremely low in toxicity to animals.

[3] = tested on: Treponema hyodysenteriae; experiment: Therapeutic efficacy of medicated feed in pigs experimentally infected with swine dysentery; format: in vivo, pigs (SPF LW)
Procedure: A premix containing 10% of carriomycin monosodium salt crystals as diluted with finely milled soybean meal was added to a feedstuff and pigs were allowed to take the feed as libitum. The feed was the proprietary pig starter mentioned in Example 2 without added antibiotics. The pigs were SPF LW and used in groups of 4 animals (2 male and 2 female.)
The pigs were infected as follows. Thus, Treponema hyodysenteriae was anaerobically grown on a 5% horse blood agar plate and the resultant culture was homogenized and admixed with 3% mucin-phosphate buffer. The mixture was directly administered into the stomach of each SPF pig. From each of the pigs showing typical symptoms of swine dysentery, the colon content and mucous membrane were taken and diluted two-fold with 3% mucin-phosphate buffer to obtain a final infective material. An 80 ml. portion of this preparation was directly infused into the stomach of each test pig, which was then put on the unmedicated feed for the initial six days. Beginning with the 7th day, each pig was put on the feed medicated with one of predetermined concentrations of the test drug and was reared for a total of 28 days. Tests were performed for three groups of animals dosed with 0 ppm. 15 ppm. and 150 ppm., respectively, of carriomycin.

[4] = Absorption from the digestive tract and residue in the animal body; conditions: in words

Question: Which “Minimum inhibitory concentration (MIC)” value ([1]; strain MK 1) does the source give for `COC1CCC(OC2C(C)C(CC3CC(OC)C(C)C4(O3)OC(C)(C3CCC(C5CCC(C6OC(C)(O)C(C)CC6C)O5)O3)C(OC)C4C)OC(O)(C(C)C(=O)O)C2C)OC1C` (stereo not drawn) [Carriomycin, carriomycin] here?
Answer: 0.1 µg/mL (≈ 0.113 µM)

Question: And the “Minimum inhibitory concentration (MIC)” value ([1]; strain MK 2)?
Answer: 0.1 µg/mL (≈ 0.113 µM)

Question: What about the “Minimum inhibitory concentration (MIC)” value ([1]; strain MK 4) of the same compound?
Answer: 0.1 µg/mL (≈ 0.113 µM)

Question: What about the “Minimum inhibitory concentration (MIC)” value ([1]; strain OX 1) of the same compound?
Answer: 0.1 µg/mL (≈ 0.113 µM)

Question: And the toxicity to animals ([2]; in words)?
Answer: extremely low

Question: What about the LD50 [2] of the same compound?
Answer: about 2,000 mg./kg.

Question: And the “Mean body weight at end of test” value ([3]; group B, 15 ppm. in feed)?
Answer: 29.1 kg./head

Question: And the “Mean feed conversion ratio” value ([3]; group B, 15 ppm. in feed)?
Answer: 2.5

Question: And the Mean feed intake ([3]; group B, 15 ppm. in feed)?
Answer: 36.5 kg./head

Question: What about the “Mean number of days with bloody mucous faeces” value ([3]; group B, 15 ppm. in feed) of the same compound?
Answer: 0.5 days/head

Question: What about the “Mean number of days with diarrhea” value ([3]; group B, 15 ppm. in feed) of the same compound?
Answer: 3.0 days/head

Question: What about the Mean weight gain ([3]; group B, 15 ppm. in feed) of the same compound?
Answer: 14.6 kg./head

Question: And the “Mean body weight at end of test” value ([3]; group C, 150 ppm. in feed)?
Answer: 31.7 kg./head

Question: What about the “Mean feed conversion ratio” value ([3]; group C, 150 ppm. in feed) of the same compound?
Answer: 2.3

Question: And the Mean feed intake ([3]; group C, 150 ppm. in feed)?
Answer: 37.3 kg./head

Question: What about the “Mean number of days with bloody mucous faeces” value ([3]; group C, 150 ppm. in feed) of the same compound?
Answer: 0.1 days/head

Question: And the “Mean number of days with diarrhea” value ([3]; group C, 150 ppm. in feed)?
Answer: 1.5 days/head

Question: And the Mean weight gain ([3]; group C, 150 ppm. in feed)?
Answer: 16.2 kg./head

Question: And the body weight gain ([3]; in words, from Table 2)?
Answer: considerable increases

Question: What about the “feed conversion ratio, number of days with diarrhea and number of days with bloody mucous faeces” value ([3]; in words, from Table 2) of the same compound?
Answer: considerable improvements

Question: What about the “absorption from the digestive tract” value [4] of the same compound?
Answer: sparingly absorbed

Question: And the “residue in the animal body” value [4]?
Answer: substantially no residue

Question: Which results are given for `CCC(C(=O)C(C)C(O)C(C)CCc1ccc(C)c(O)c1C(=O)O)C1OC(CC)(C2CCC(O)(CC)C(C)O2)CC1C` (stereo not drawn) [Lasalocid A]?
Answer: MIC ([1]; strain MK 1): 10 µg/mL (≈ 16.9 µM); MIC ([1]; strain MK 2): 10 µg/mL (≈ 16.9 µM); MIC ([1]; strain MK 4): 10 µg/mL (≈ 16.9 µM); MIC ([1]; strain OX 1): 10 µg/mL (≈ 16.9 µM); LD50 ([2]; in vivo, read-out: LD50): 146 mg/kg

Question: Which MIC ([1]; strain MK 1) does the source give for `CC[C@@]1([C@@H]2O[C@@H]([C@H]3O[C@@](O)(CO)[C@H](C)C[C@@H]3C)C[C@@H]2C)CC[C@H]([C@]2(C)CC[C@]3(C[C@H](O)[C@@H](C)[C@@H]([C@@H](C)[C@@H](OC)[C@H](C)C(=O)O)O3)O2)O1` [Monensin] here?
Answer: 1 µg/mL (≈ 1.49 µM)

Question: And the MIC ([1]; strain MK 2)?
Answer: 1 µg/mL (≈ 1.49 µM)

Question: And the MIC ([1]; strain MK 4)?
Answer: 1 µg/mL (≈ 1.49 µM)

Question: And the MIC ([1]; strain OX 1)?
Answer: 1 µg/mL (≈ 1.49 µM)

Question: What does the source list for `CC[C@@H](C(=O)[C@@H](C)[C@@H](O)[C@H](C)[C@@H]1O[C@@H]([C@@H](CC)C(=O)O)CC[C@@H]1C)[C@H]1O[C@]2(C=C[C@@H](O)[C@]3(CC[C@@](C)([C@H]4CC[C@](O)(CC)[C@H](C)O4)O3)O2)[C@H](C)C[C@@H]1C` [Salinomycin, salinomycin]?
Answer: MIC ([1]; strain MK 1): 1 µg/mL (≈ 1.33 µM); MIC ([1]; strain MK 2): 1 µg/mL (≈ 1.33 µM); MIC ([1]; strain MK 4): 0.1 µg/mL (≈ 0.133 µM); MIC ([1]; strain OX 1): 1 µg/mL (≈ 1.33 µM); LD50 ([2]; in vivo, read-out: LD50): 50 mg/kg
